{
  "source": "patent US11524969B2",
  "about": "“Pyrrolobenzodiazepines and conjugates thereof as antitumour agents” (MEDIMMUNE LIMITED, priority 2018, dated 2022)",
  "data": [
    {"tested_on": "NCI-N87", "experiment": "NCI-N87 assay, in vitro cytotoxicity of PBD payloads (MTS, 7 days)", "assay_type": "cell-based", "settings": "Homo sapiens, NCI-N87, 168 h; 7 days incubation, mean of three independent replicates", "method": "The potency of each of the PBD molecules were measured via in vitro cytotoxicity assays in the carcinoma cell line NCI-N87.\n(§1) Solid PBD material was dissolved in DMSO to a 2 mM stock solution, from which eight serial dilutions were made at a 1:10 ratio in DMSO and stored at −20° C. until use.\nAdherent NCI-N87 cells were washed with D-PBS and detached with Trypsin-EDTA, cell density and viability were then determined in duplicate by Trypan blue exclusion assay using an automated cell counter (LUNA-II™). Cell suspension was diluted to 1×10^5 cells/ml in growth media (RPMI 1640 with Glutamax+10% (v/v) HyClone™ Fetal Bovine Serum) and vortexed before dispensing 2 mL per well into sterile 3 mL polypropylene plates. Warhead dilutions were then dispensed into the appropriate wells at 10 μl/well and mixed by repeat pipetting. For control wells 10 μl of DMSO was dispensed onto 2 mL cell suspension, and thoroughly mixed. 100 μl of each sample was then aliquoted into 2 replicate wells of a sterile flat 96-well microplate and incubated in a 37° C. CO2-gassed (5%) incubator. At the end of the incubation period time (7 days), cell viability was measured by CellTiter 96® Aqueous One (MTS) assay, which was dispensed at 20 μl/well and incubated for 4 hours at 37° C., 5% CO2.\nPlates were then read on an EnVision® Multi-label Plate Reader (Perkin Elmer) using absorbance at 490 nm.\n(§2) Cell survival percentage was calculated from the mean absorbance of the 2 replicate wells for each sample, compared to the mean absorbance in the two control wells treated with DMSO only (100%). The IC50 was determined by fitting each data set to sigmoidal dose-response curves with a variable slope using the non-linear curve fit algorithm on the GraphPad Prism software (San Diego, Calif.).\nAll the experiments in this report were carried out and tested in three independent experiments. Data are reported as the mean of the three independent replicates.", "units": {"IC50": "nM"}, "values": [
      {"smiles": "C=C1C[C@H]2C=Nc3cc(OCc4cccc(COc5cc6c(cc5OC)C(=O)N5CC(=C)C[C@H]5C=N6)c4)c(OC)cc3C(=O)N2C1", "note": "[Compound 58, (11aS,11a′S)-8,8′-((1,3-phenylenebis(methylene))bis(oxy))bis(7-methoxy-2-methylene-1,2,3,11a-tetrahydro-5H-benzo[e]pyrrolo[1,2-a][1,4]diazepin-5-one), reference compound]", "IC50": 0.0172},
      {"smiles": "C=C1C[C@H]2C=Nc3cc(OCc4cc(C(=O)O)cc(COc5cc6c(cc5OC)C(=O)N5CC(=C)C[C@H]5C=N6)n4)c(OC)cc3C(=O)N2C1", "note": "[Compound 56, 2,6-Bis((((S)-7-methoxy-2-methylene-5-oxo-2,3,5,11a-tetrahydro-1H-benzo[e]pyrrolo[1,2-a][1,4]diazepin-8-yl)oxy)methyl)isonicotinic acid]", "IC50": 20.7},
      {"smiles": "C=C1C[C@H]2C=Nc3cc(OCc4cc(COc5cc6c(cc5OC)C(=O)N5CC(=C)C[C@H]5C=N6)cc(C(=O)O)c4)c(OC)cc3C(=O)N2C1", "note": "[Compound 53, 3,5-bis((((S)-7-Methoxy-2-methylene-5-oxo-2,3,5,11a-tetrahydro-1H-benzo[e]pyrrolo[1,2-a][1,4]diazepin-8-yl)oxy)methyl)benzoic acid]", "IC50": 4.31},
      {"smiles": "C=C1C[C@H]2C=Nc3cc(OCc4cc(COc5cc6c(cc5OC)C(=O)N5CC(=C)C[C@H]5C=N6)cc(C(=O)OC)c4)c(OC)cc3C(=O)N2C1", "note": "[Compound 51, Methyl 3,5-bis((((S)-7-methoxy-2-methylene-5-oxo-2,3,5,11a-tetrahydro-1H-benzo[e]pyrrolo[1,2-a][1,4]diazepin-8-yl)oxy)methyl)benzoate]", "IC50": 0.0685},
      {"smiles": "C=C1C[C@H]2C=Nc3cc(OCc4cc(C(=O)OC)cc(COc5cc6c(cc5OC)C(=O)N5CC(=C)C[C@H]5C=N6)n4)c(OC)cc3C(=O)N2C1", "note": "[Compound 55, Methyl 2,6-bis((((S)-7-methoxy-2-methylene-5-oxo-2,3,5,11a-tetrahydro-1H-benzo[e]pyrrolo[1,2-a][1,4]diazepin-8-yl)oxy)methyl)isonicotinate]", "IC50": 0.0168}
    ]},
    {"tested_on": "K562", "experiment": "K562 assay, in vitro cytotoxicity of PBD payloads (MTS, 4 days)", "assay_type": "cell-based", "settings": "Homo sapiens, K562, 96 h; 4 days incubation, mean of three independent replicates", "method": "The potency of each of the PBD molecules were measured via in vitro cytotox assays in the carcinoma cell line K562.\nas §1\nAdherent K562 cells were washed with D-PBS and detached with Trypsin-EDTA, cell density and viability were then determined in duplicate by Trypan blue exclusion assay using an automated cell counter (LUNA-II™). Cell suspension was diluted to 1×10^5 cells/ml in growth media (RPMI 1640 with Glutamax+10% (v/v) HyClone™ Fetal Bovine Serum) and vortexed before dispensing 2 mL per well into sterile 3 mL polypropylene plates. […] At the end of the incubation period time (4 days), cell viability was measured by CellTiter 96® Aqueous One (MTS) assay, which was dispensed at 20 μl/well and incubated for 4 hours at 37° C., 5% CO2. Plates were then read on an EnVision® Multi-label Plate Reader (Perkin Elmer) using absorbance at 490 nm.\nas §2, with “Calif.). […]” for “Calif.).”", "units": {"IC50": "nM"}, "values": [
      {"smiles": "COc1cc2c(cc1OCc1cc(COc3cc4c(cc3OC)C(=O)N3C=C(C)C[C@H]3C=N4)cc(C(=O)O)c1)N=C[C@@H]1CC(C)=CN1C2=O", "note": "[Compound 49, 3,5-bis((((S)-7-methoxy-2-methyl-5-oxo-5,11a-dihydro-1H-benzo[e]pyrrolo[1,2-a][1,4]diazepin-8-yl)oxy)methyl)benzoic acid]", "IC50": 1.84},
      {"smiles": "COC(=O)c1cc(COc2cc3c(cc2OC)C(=O)N2C=C(C)C[C@H]2C=N3)cc(COc2cc3c(cc2OC)C(=O)N2C=C(C)C[C@H]2C=N3)c1", "note": "[Compound 47, Methyl 3,5-bis((((S)-7-methoxy-2-methyl-5-oxo-5,11a-dihydro-1H-benzo[e]pyrrolo[1,2-a][1,4]diazepin-8-yl)oxy)methyl)benzoate]", "IC50": 0.162}
    ]}
  ]
}
